Measurements from patent US20250026723A1, “Cannabinoid Receptor Modulating Compounds” (THE UNITED STATES OF AMERICA, as represented by the …, priority 2021, published 2025).
Like-named read-outs stand apart in the source and are kept apart here.

How the values were obtained:
[1] = target: cannabinoid receptor 1 (CB1R) (Homo sapiens (Human), UniProt P21554); assay: CB1R binding affinity (inhibition constant Ki)
[2] = target: T1, CB1 (Homo sapiens (Human), UniProt P21554); assay: CB1 antagonism assay, red (cAMP) NOMAD biosensor, MPXNomad-CB1 HEK293 cells; type: cell-based
Method: (§1) CB1 antagonism assays were conducted on red (cAMP) and green ([…]) NOMAD biosensors using MPXNomad-CB1 HEK293 cells using commercial kits and protocols provided by Innoprot (Derio, Spain).
Target sequence in this assay (P21554 whole entry): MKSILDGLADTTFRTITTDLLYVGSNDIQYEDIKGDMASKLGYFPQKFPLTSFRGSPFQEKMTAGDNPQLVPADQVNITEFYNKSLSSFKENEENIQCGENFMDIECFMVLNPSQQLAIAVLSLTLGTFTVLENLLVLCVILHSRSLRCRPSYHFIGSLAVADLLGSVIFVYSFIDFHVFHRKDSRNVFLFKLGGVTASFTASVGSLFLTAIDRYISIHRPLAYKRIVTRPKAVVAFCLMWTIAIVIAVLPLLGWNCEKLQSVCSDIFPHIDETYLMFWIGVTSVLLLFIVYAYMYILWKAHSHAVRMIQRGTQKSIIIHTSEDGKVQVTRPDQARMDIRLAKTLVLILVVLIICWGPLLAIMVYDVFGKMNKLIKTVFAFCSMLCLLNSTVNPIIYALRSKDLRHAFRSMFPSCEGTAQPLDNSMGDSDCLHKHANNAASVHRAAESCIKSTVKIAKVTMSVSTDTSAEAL

[3] = target: T1, CB1; assay: CB1 antagonism assay, green (β-Arrestin) NOMAD biosensor, MPXNomad-CB1 HEK293 cells; type: cell-based
Method: as §1
Target sequence in this assay (P21554 whole entry): as above

[4] = in vitro; settings: human, Caco-2
[5] = Caco-2 permeability assay; settings: human, Caco-2
[6] = system: Caco-2; assay: Caco-2 permeability assay; settings: Caco-2, assay conc 10 μM
[7] = target: T1, CB1; assay: Cannabinoid receptor modulator activity (Table 3, in words)
Target sequence in this assay (P21554 whole entry, species assumed): as the sequence (P21554 whole entry) above

Compound `COC(=O)[C@@H](C)CS/C(=N\S(=O)(=O)c1ccc(C(F)(F)F)cc1)N1CC(c2ccccc2)C(c2ccc(Cl)cc2)=N1` (stereo partly shown) [Compound 3A] has a Ki [1] of 7.7 nM, an IC50 [2] of 0.61 nM and an IC50 [3] of 0.04 nM. It also gave a Papp A→B at 10 μM [4] of 0.0096 ×10⁻⁶ cm/s, a Papp B→A at 10 μM [4] of 0.0121 ×10⁻⁶ cm/s and an efflux ratio at 10 μM [5] of 1.26.

Work on `NC(=O)CSC(=NS(=O)(=O)c1ccc(C(F)(F)F)cc1)N1CC(c2ccccc2)C(c2ccc(Cl)cc2)=N1` (stereo not shown) [Compound 3] yielded a Ki ([1]; read-out: CB1R Ki) of 21.2 nM.

In the case of `NC(=O)C[Se]C(=NS(=O)(=O)c1ccc(C(F)(F)F)cc1)N1CC(c2ccccc2)C(c2ccc(Cl)cc2)=N1` (stereo not shown) [Compound 20], the Ki ([1]; read-out: CB1R Ki) is reported as 14.4 nM, the “Mean (B-A/A-B) Efflux Ratio” value [6] is reported as 0.25 and the “Mean Papp A-B” value [6] is reported as 0.183 10^−6 cm/s. For the same compound, the “Mean Papp B-A” value [6] was 0.0451 10^−6 cm/s.

For `COCCSC(=NS(=O)(=O)c1ccc(C(F)(F)F)cc1)N1CC(c2ccccc2)C(c2ccc(Cl)cc2)=N1` (stereo not shown) [Compound 1], the Ki ([1]; read-out: CB1R Ki) was 6.9 nM.

`C[Se]C(=NS(=O)(=O)c1ccc(C(F)(F)F)cc1)N1CC(c2ccccc2)C(c2ccc(Cl)cc2)=N1` (stereo not shown) [Compound 12] gave a Ki ([1]; read-out: CB1R Ki) of 3.3 nM.

For `O=C(CCS/C(=N\S(=O)(=O)c1ccc(C(F)(F)F)cc1)N1CC(c2ccccc2)C(c2ccc(Cl)cc2)=N1)NO` (stereo not shown) [Compound 3B], the “Activity at CB1 (in words)” value [7] was “antagonist, potential”.

Compound `N#CCCCSC(=NS(=O)(=O)c1ccc(C(F)(F)F)cc1)N1CC(c2ccccc2)C(c2ccc(Cl)cc2)=N1` (stereo not shown) [Compound 2] has a Ki ([1]; read-out: CB1R Ki) of 3.4 nM, an IC50 ([2]; MPXNomad-CB1 HEK293 cells, CB1 antagonism, read-out: cAMP IC50) of 2490 nM and an IC50 ([3]; MPXNomad-CB1 HEK293 cells, CB1 antagonism, read-out: β-Arrestin IC50) of 1800 nM. For the same compound, the “Mean (B-A/A-B) Efflux Ratio” value [6] was 2.09, the “Mean Papp A-B” value [6] was 0.00561 10^−6 cm/s and the “Mean Papp B-A” value [6] was 0.0118 10^−6 cm/s.

In the case of `COC(=O)C(C)C[Se]C(=NS(=O)(=O)c1ccc(Cl)cc1)N1CC(c2ccccc2)C(c2ccc(Cl)cc2)=N1` (stereo not shown) [Compound 23], the Ki ([1]; read-out: CB1R Ki) is reported as 12.1 nM.

In the case of `CSC(=NS(=O)(=O)c1ccc(C(F)(F)F)cc1)N1CC(c2ccccc2)C(c2ccc(Cl)cc2)=N1` (stereo not shown) [Compound 19], the Ki ([1]; read-out: CB1R Ki) is reported as 16.6 nM.
